In test [1] the target is T1, R50A/K54A mutant AtHMGB3 (Arabidopsis thaliana, UniProt P93047, K54A/R50A).
T1 construct: providing a full length Arabidopsis thaliana HMGB1 or HMGB3 (AtHMGB1 or AtHMGB3) protein; made in house
Description: MAPK activation assay with mutant R50A/K54A AtHMGB3. The conditions noted are these: in vivo. How it is done:
To detect the phosphorylation of Arabidopsis MAPKs (MPK3/4/6), 3 to 4 week-old soil grown Arabidopsis leaves were infiltrated with 1 μM AtHMGB3 or 1 μM Pep1 peptide ([…]; synthesized by GenScript USA Inc.). […] Proteins were extracted using lacus buffer (25 mM Tris-HCl, pH 7.5, 15 mM MgCl2, 15 mM EGTA, 75 mM NaCl, 1 mM DTT, 0.1% NP-40, 5 mM p-nitrophenylphosphate, 60 mM β-glycerophosphate, 0.1 mM […], 1 mM NaF, 1 mM PMSF, 5 μg/ml leupeptin, 5 μg/ml aprotinin), and then centrifuged at 15,000 g for 10 min at 4 ° C. to remove cell debris.
(§1) Thus, these residues (R50 and K54) were mutated to Ala, and the resulting mutant AtHMGB3 tested for its ability to activate MPK3/6 and induce callose deposition in the absence or presence of SA. The R50A/K54A mutant AtHMGB3 retained its ability to activate MPK3/6 and induce callose deposition, but inhibition of these activities by SA was lost (FIG. 7H,I and FIG. 8).

For test [2], the target named is T1, R50A/K54A mutant AtHMGB3. In words: Callose deposition with mutant R50A/K54A AtHMGB3. The conditions noted are these: in vivo. As for the experimental part:
Arabidopsis leaves were collected 15 h after infiltration with 100 nM AtHMGB3 or 100 nM Pep1, and then immediately immersed in alcoholic lactophenol (phenol:glycerol:lactic acid:water:ethanol=1:1:1:1:8) to destain the chlorophyll. To remove the background fluorescence, destained leaves were treated with toluidine blue O solution (0.05% toluidine blue O, 0.1 M sodium acetate, pH 4.4) for 30 min, and then rinsed twice with 150 mM K2HPO4 (pH 9.5). Callose was stained with aniline blue solution (0.02% aniline blue, 150 mM K2HPO4, pH 9.5) for 30 min in the absence of light. The aniline blue-stained leaves were mounted with 25% glycerol and analyzed using a Leica DM5500 epifluorescence microscope. The number of callose loci was quantified using an ImageJ (NIH).
as §1

Another test deals with T2, HMGB1 (Homo sapiens, UniProt P09429).
T2 construct: (i) full length: residues 2-215; 6x His (cleaved yes); made in house; host or cells: Escherichia coli BL21
T2 sequence (P09429 2-215): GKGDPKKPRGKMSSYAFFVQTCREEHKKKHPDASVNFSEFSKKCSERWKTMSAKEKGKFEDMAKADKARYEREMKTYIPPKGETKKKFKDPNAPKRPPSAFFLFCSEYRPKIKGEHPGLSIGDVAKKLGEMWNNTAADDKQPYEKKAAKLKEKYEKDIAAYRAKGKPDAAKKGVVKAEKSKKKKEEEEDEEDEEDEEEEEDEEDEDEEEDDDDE
In words: Cell migration assay with mouse embryonic fibroblasts, WT or Ptgs2-/-. It is filed as cell-based. To be noted: dose-dependent, both WT and Ptgs2−/− MEFs. As for the experimental part: Human HeLa cells were grown in T75 flasks in DMEM medium supplemented with penicillin (10,000 IU/mL) streptomycin ([…]), and 10% fetal calf serum. Ptgs2−/− MEFs were derived from Ptgs2−/− E16 mouse embryos, obtained from the mating of Ptgs2+/− mice purchased from Taconic Biosciences. PBMCs were isolated from buffy coats of donor blood (Hospital of Magenta, Milan, Italy) by Ficoll gradient centrifugation (Lymphoprep; AXIS-SHIELD. CD14+ monocytes were isolated by positive immunoselection (CD14 Microbeads; Miltenyi Biotec) according to the manufacturer's instructions, and differentiated into macrophages using X-Vivo medium supplemented with 1% heat inactivated human serum, GM-CSF, and M-CSF.
Cell migration was assayed using Boyden chambers (Venereau et al., 2012). The downside of PVP-free polycarbonate filters (8 μm pores; Millipore) was coated with 50 μg/ml fibronectin (Sigma). Serum-free DMEM (negative control), DMEM containing 0.1 nM fMLP (positive control; Sigma), or DMEM containing 1 nM HMGB1^RE or HMGB1^SS were placed in the lower chamber, together with different concentrations of SA (Sigma). The mouse 3T3 fibroblast cells were cultured in DMEM media supplemented with 10% CS until 90% confluence, washed twice with PBS to eliminate any floating cells, and harvested with trypsin. […]

Another test concerns the target T3, CXCL12 (Homo sapiens, UniProt P48061).
T3 construct: full-length disulfide-intact CXCL12
Description: WaterLOGSY NMR with CXCL12. It is filed as binding. The conditions noted are these: 6 mM SA or 5 mM ac3AESA, 20 μM protein. From the text: NMR can be used to detect protein ligand interactions either by protein-detected experiments (Lepre, Moore et al. 2004), detecting changes in the frequencies of resonances of the protein sample due to ligand binding (protein-detected chemical shift perturbation (CSP) experiments), or by ligand-detected experiments (Lepre, Moore et al. 2004), in which NMR properties of the ligands due to ligand-protein interactions are detected. Protein-detected ligand binding experiments are usually done using isotope-enriched protein samples which can be studied by isotope-filtered NMR experiments, including for example ^15N-^1H-HSQC (Kay, Keifer et al. 1992). Ligand-detected experiments include the Waterlogsy experiment (Meyer and Peters 2003, Lepre, Moore et al. 2004, Furihata, Shimotakahara et al. 2008), which detects interactions in the ternary complex formed by the protein, the ligand, and one or more water molecules, and the Saturation Transfer Difference (STD) NMR experiments (Mayer and Meyer 2001, Lepre, Moore et al. 2004, Wang, Liu et al. 2004), which detects magnetization transfer from the protein to the ligand in the protein-ligand complex. The Waterlogsy experiment is a more sensitive experiment, typically employed to detect qualitatively if there is an interaction between protein and ligand. […]

T1 sequence (P93047 whole entry R50A/K54A): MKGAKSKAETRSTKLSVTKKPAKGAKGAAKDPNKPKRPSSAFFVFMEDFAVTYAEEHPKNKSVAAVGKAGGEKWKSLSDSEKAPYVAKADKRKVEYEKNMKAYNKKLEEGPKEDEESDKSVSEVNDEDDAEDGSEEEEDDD
T3 sequence (P48061 22-89 limits assumed, species assumed): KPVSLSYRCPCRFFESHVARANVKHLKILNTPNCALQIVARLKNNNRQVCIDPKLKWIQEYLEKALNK

As for `O=C(O)c1ccccc1O` [SA, salicylic acid], at R50A/K54A mutant AtHMGB3 [1], the “inhibition by SA of MPK3/6 activation by R50A/K54A AtHMGB3” value is on record as “lost”. Moreover, on R50A/K54A mutant AtHMGB3 [2], the “inhibition by SA of callose deposition induced by R50A/K54A AtHMGB3” value is “lost”. Also, on HMGB1, the “inhibition of fibroblast migration in WT and Ptgs2-/- MEFs” value is “effectively inhibited”. The “WaterLOGSY binding to CXCL12” value at CXCL12 was “binds”.

Values taken from US20180045715A1, “STRUCTURE AND FUNCTION OF THE SALICYCLIC ACID BINDING SITES ON HUMAN HMGB1 AND METHODS OF USE THEREOF FOR THE RATIONAL DESIGN OF BOTH SALICYCLIC ACID DERIVATIVES AND OTHER AGENTS THAT ALTER ANIMAL AND PLANT HMGBS ACTIVITIES” (Boyce Thompson Institute for Plant Research, Inc., priority 2015, published 2018).
